{"source": "patent US10022362B2", "about": "“Anti-allergy benzocycloheptathiophene derivatives” (FUJIAN MINDONG REJUVENATION PHARMACEUTICAL CO., LTD., priority 2011, dated 2018)", "key": {"[1]": {"system": "Mice sensitized with anti-DNP IgE mAb, DNP-BSA challenge", "test": "Prophylactic effects: IgE-mediated passive cutaneous anaphylaxis (Evan's blue dye leakage)", "format": "in vivo", "method": "Mice were given 4-[1-(5-methyl-pyridin-3-ylmethyl)piperidin-4-ylidene]-4,9-dihydro-1-thia-benzo[f]azulen-10-one (1 mg/kg) or ketotifen (1 mg/kg) orally as per dosing schedule shown in FIG. 2A. Subsequently, mice were sensitized by intradermal injection of 20 ng antidinitrophenyl (DNP) IgE mAb (Sigma) into left ears, while right ear received saline as a control. After 24 h, mice were challenged by i.v. injection of 100 μg of DNP-Bovine Serum Albumin (BSA) (as an allergen) in 200 μl Evan's blue dye (1% wt/vol, Sigma). Thirty min later, ear punch (8 mm) was collected in 300 μl of formamide and incubated at 80° C. for 2 h in water bath to extract Evan's blue dye. The absorbance was determined at 620 nm. […] Granule-associated mediators such as histamine stimulate endothelium and blood vessel smooth muscle cells leading to increased vascular permeability."}, "[2]": {"system": "Mice passively sensitized with anti-DNP IgE mAb, DNFB challenge", "test": "Prophylactic effects: IgE-mediated late phase cutaneous reactions (ear and foot swelling)", "format": "in vivo", "settings": "1 mg/kg orally twice (before IgE injection and before DNFB challenge), thickness measured after 24 h, FIG. 1B", "method": "Mice were given 4-[1-(5-methyl-pyridin-3-ylmethyl)piperidin-4-ylidene]-4,9-dihydro-1-thia-benzo[f]azulen-10-one (1 mg/kg) or ketotifen (1 mg/kg) orally twice as per the schedule dosing regimen provided in FIG. 1A as indicated by the numbered dose in a circle. The first dose (indicated by a circled number 1) was given on day 1 before IgE injection and a 2nd dose (indicated by a circled number 2) was given on day 2 before dinitrofluorobenzene (DNFB, as an allergen) challenge. Mice were passively sensitized by i.v. injection of 2 μg anti-DNP IgE mAb (Sigma). After 24 h, a cutaneous reaction was elicited by the application of 20 μl of DNFB (0.3% wt/vol, Sigma) in acetone-olive oil (4:1) to both sides of the left hind paw or left ear, and 20 μl of acetone-olive oil to the right hind paw or right ear as a control. The thickness of foot pad or ear was measured using a digital micrometer after 24 h. The thickness of the right ear or right hind paw (treated with acetone-olive oil only) was used as baseline values. The DNFB-induced increment of tissue thickness was expressed as the percentage of the baseline values."}, "[3]": {"system": "Mice passively sensitized with anti-DNP IgE mAb, DNFB application", "test": "Therapeutic effects: IgE-mediated late phase cutaneous reactions (ear and foot swelling)", "format": "in vivo", "settings": "FIG. 3B", "method": "After 24 h, a cutaneous reaction was elicited by the application of 20 μL of DNFB (0.3% wt/vol, Sigma) in acetone-olive oil (4:1) to both sides of the left hind paw or left ear, and 20 μl of acetone-olive oil to the right hind paw or right ear as a control as shown in FIG. 3A. Three hours after DNFB application, mice were given 4-[1-(5-methyl-pyridin-3-ylmethyl)piperidin-4-ylidene]-4,9-dihydro-1-thia-benzo[f]azulen-10-one (1 mg/kg, p.o.), ketotifen (1 mg/kg, p.o.) or saline as control as indicated in FIG. 3A by the circled number “1”. The thickness of foot pad or ear was measured using a digital micrometer after 24 h of DNFB application. The weight of hind paw or ear punch (5 mm) was also determined. The thickness and weight of the right ear or right hind paw (treated with acetone-olive oil only) were used as baseline values. The DNFB-induced increment of tissue thickness was expressed as the percentage of the baseline values."}, "[4]": {"system": "Mouse bone marrow derived mast cells (BMMCs)", "test": "Allergen-induced cytokine IL-6 production by mast cells in vitro", "format": "cell-based", "settings": "FIG. 4", "method": "Mouse bone marrow derived mast cells (BMMCs) were resuspended in fresh complete medium supplemented with TIB141-conditioned medium enriched in IgE directed against trinitrophenyl (TNP) at a ratio of 3:1. BMMCs were typically sensitized at 0.5 million/ml. Following sensitization, BMMCs were washed extensively with RPMI 1640 supplemented with 10% FBS alone. BMMCs were then treated with 4-[1-(5-methyl-pyridin-3-ylmethyl)piperidin-4-ylidene]-4,9-dihydro-1-thia-benzo[f]azulen-10-one or ketotifen at the concentration of […], 1, 10 or 100 μM for 1 hour and subsequently stimulated with antigen TNP-BSA (10 ng/ml) for 6 h. Cytokine levels in the cell free supernatant were determined by ELISA."}, "[5]": {"system": "Mouse bone marrow derived eosinophils", "test": "Inhibition of eosinophil proliferation in vitro (3H-thymidine incorporation)", "format": "cell-based", "settings": "for thymidine incorporation (eosinophil proliferation): eosinophils cultured with IL-5 (50 ng/ml), treated 1 hour, 3H-thymidine pulse 18 hours, CPM", "method": "Mouse bone marrow derived eosinophils (1×10^5 cells/well) were seeded in 96 well plates in triplicate and were cultured with IL-5 (50 ng/ml). Eosinophils were treated with 4-[1-(5-methyl-pyridin-3-ylmethyl)piperidin-4-ylidene]-4,9-dihydro-1-thia-benzo[f]azulen-10-one (Compound A) or ketotifen for 1 hour. Cells were then pulsed with 0.5 μCi of ^3H-thymidine for 18 hours. Cells were harvested to glass fiber paper using a suction manifold and washed extensively to eliminate unincorporated thymidine. Fiber paper was dried and added to vials with 2.5 ml of scintillation fluid (Ecolite). Thymidine incorporation was measured on a Wallac beta counter.\nThe incorporation of ^3H-thymidine (eosinophil proliferation) was quantified by liquid scintillation counting (CPM)."}, "[6]": {"settings": "1 mg/kg p.o. each, three hours after DNFB application"}}}
{"smiles": "Cc1cncc(CN2CCC(=C3c4ccccc4CC(=O)c4sccc43)CC2)c1", "note": "[Compound A, 4-[1-(5-methyl-pyridin-3-ylmethyl)-piperidin-4-ylidene]-4,9-dihydro-1-thia-benzo[f]azulen-10-one]", "values": [{"measurement": "allergen (DNP)-induced Evan's blue dye leakage", "setting": "[1]; 1 mg/kg orally before sensitization, compared to the vehicle control, FIG. 2B", "result": "strongly reduced"}, {"measurement": "time after oral administration at which inhibitory effects on Evan's blue dye leakage and tissue swelling were observed", "setting": "[1]; 1 mg/kg orally, suggesting long-lasting effects", "result": 24, "unit": "h"}, {"measurement": "allergen DNFB-induced ear and foot swelling", "setting": "[2]", "result": "strongly reduced"}, {"measurement": "block of swelling and weight increase of ear and feet, compared with ketotifen", "setting": "[3]; [6]", "result": "comparable to ketotifen"}, {"measurement": "foot weight, activity compared with ketotifen", "setting": "[3]; [6]", "result": "surpassing the activity of ketotifen"}, {"measurement": "DNP-induced swelling and increase the weight of the ear and the feet", "setting": "[3]; 1 mg/kg p.o. three hours after DNFB application, measured 24 h after DNFB application", "result": "significantly block"}, {"measurement": "cytokine IL-6 production by mast cells", "setting": "[4]; BMMCs treated at 01, 1, 10 or 100 μM for 1 hour, then TNP-BSA (10 ng/ml) for 6 h, ELISA", "result": "significantly reduce"}, {"measurement": "reduction of IL-6 production by mast cells, compared with ketotifen", "setting": "[4]; equivalent concentrations (01, 1, 10 or 100 μM)", "result": "even more effective than ketotifen at some of the equivalent concentrations used"}, {"measurement": "thymidine incorporation (eosinophil proliferation)", "setting": "[5]", "result": "dose-dependently reduced"}, {"measurement": "inhibition on eosinophil proliferation, compared with ketotifen", "setting": "[5]; p<0.01, n=3 experiments, FIG. 5", "result": "significantly stronger inhibition"}]}
{"smiles": "CN1CCC(=C2c3ccccc3CC(=O)c3sccc32)CC1", "note": "[ketotifen, reference compound]", "values": [{"measurement": "thymidine incorporation (eosinophil proliferation)", "setting": "[5]", "result": "dose-dependently reduced"}]}
